Counter-ions that a name gives are not always drawn. Like-named read-outs stand apart in the source and are kept apart here.
How the values were obtained:
[1] = tested on: leukotriene pathway in human whole blood (LTB4 levels); assay: Human whole blood assay (A23187-stimulated LTB4); assay type: cell-based; settings: Homo sapiens, human whole blood diluted 1:1, A23187-stimulated; read-out: LTB4 IC50 1:1
Procedure, shortened: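 Heparinised human whole blood, diluted 1:1 in RPMI, was pre-incubated with test compounds for 15 min at 37° Celsius, then stimulated with A23187 (7 μg/mL) for 30 min at 37° Celsius. Plasma LTB4 was measured by immunoassay kit; IC50 from 4-parameter fit; single replicate, at least one healthy donor.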

human FLAP = human FLAP (Homo sapiens (Human), UniProt P20292); assay: FLAP binding assay (HTRF format)
human FLAP, sequence (P20292 whole entry): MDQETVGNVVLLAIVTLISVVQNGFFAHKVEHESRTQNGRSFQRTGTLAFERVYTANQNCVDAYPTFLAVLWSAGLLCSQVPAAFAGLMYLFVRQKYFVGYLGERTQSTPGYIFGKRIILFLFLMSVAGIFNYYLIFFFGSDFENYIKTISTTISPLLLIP
Procedure, shortened: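 HTRF ratio read-out; two independent plates, samples in duplicate on each, values averaged across plates.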

| IC50 [1] | Ki (human FLAP; wild type FLAP, HTRF format) | Structure (SMILES) | Ki (human FLAP; read-out: FLAP Binding wild type HTRF Ki) |
| --- | --- | --- | --- |
| 417 nM | ~354 nM | COc1c(-c2ccccc2S(C)(=O)=O)ccc(-c2cnc(N)cn2)c1F [Example 835, 5-[3-Fluoro-2-methoxy-2′-(methylsulfonyl)biphenyl-4-yl]pyrazin-2-amine] | – |
| 595 nM | 25.5 nM | COc1c(-c2ccccc2S(=O)(=O)NC(C)(C)C)ccc(-c2cnc(N)cn2)c1F [Example 836, 4′-(5-Aminopyrazin-2-yl)-N-tert-butyl-3′-fluoro-2′-methoxybiphenyl-2-sulfonamide] | – |
| 99.6 nM | 12.7 nM | Nc1cnc(-c2ccc(-c3ccccc3-c3cnc(N)cn3)cc2F)cn1 [Example 840, 5,5′-(3′-Fluorobiphenyl-2,4′-diyl)dipyrazin-2-amine] | – |
| 370 nM | 146 nM | Nc1cnc(-c2ccccc2-c2ccc(-c3cnc(N)nc3)c(F)c2)cn1 [Example 841, 5-[2′-(5-Aminopyrazin-2-yl)-3-fluorobiphenyl-4-yl]pyrimidin-2-amine] | – |
| 44.3 nM | 15.6 nM | Nc1cnc(-c2ccc(-c3ccccc3-c3cnc(N)nc3)cc2F)cn1 [Example 843, 5-[4′-(5-Aminopyrazin-2-yl)-3′-fluorobiphenyl-2-yl]pyrimidin-2-amine] | – |
| 907 nM | 509 nM | Nc1ncc(-c2ccc(-c3ccccc3-c3cnc(N)nc3)cc2F)cn1 [Example 844, 5,5′-(3′-Fluorobiphenyl-2,4′-diyl)dipyrimidin-2-amine] | – |
| 41.8 nM | 10.5 nM | COc1ncc(-c2ccccc2-c2ccc(-c3cnc(N)cn3)c(F)c2)cn1 [Example 846, 5-[3-Fluoro-2′-(2-methoxypyrimidin-5-yl)biphenyl-4-yl]pyrazin-2-amine] | – |
| 322 nM | 96.8 nM | Nc1cnc(-c2ccc(-c3ccccc3-c3cncnc3)cc2F)cn1 [Example 848, 5-(3-Fluoro-2′-pyrimidin-5-ylbiphenyl-4-yl)pyrazin-2-amine] | – |
| 359 nM | 32.6 nM | CC(C)(O)Cn1cc(-c2ccccc2-c2ccc(-c3cnc(N)cn3)c(F)c2)cn1 [Example 851, 1-{4-[4′-(5-Aminopyrazin-2-yl)-3′-fluorobiphenyl-2-yl]-1H-pyrazol-1-yl}-2-methylpropan-2-ol] | – |
| 45.6 nM | 4.7 nM | Nc1cnc(-c2ccc(-c3ccc(C(F)(F)F)cc3-c3cnc(N)nc3)cc2F)cn1 [Example 853, 5-[4′-(5-Aminopyrazin-2-yl)-3′-fluoro-4-(trifluoromethyl)biphenyl-2-yl]pyrimidin-2-amine] | – |
| 205 nM | 28 nM | Nc1cnc(-c2ccc(-c3ccccc3N3CCCCS3(=O)=O)cc2F)cn1 [Example 857, 5-[2′-(1,1-Dioxido-1,2-thiazinan-2-yl)-3-fluorobiphenyl-4-yl]pyrazin-2-amine] | – |

The next lines start with the compound.

| Structure (SMILES) | IC50 [1] | Ki (human FLAP; wild type FLAP, HTRF format) | Ki (human FLAP; read-out: FLAP Binding wild type HTRF Ki) |
| --- | --- | --- | --- |
| Nc1ncc(-c2ccc(-c3cccnc3S(=O)(=O)C3CCOCC3)cc2F)cn1 [Example 831, 5-{2-Fluoro-4-[2-(tetrahydro-2H-pyran-4-ylsulfonyl)pyridin-3-yl]phenyl}pyrimidin-2-amine formic acid salt] | 79.2 nM | – | 131 nM |
| COc1c(-c2ccccc2)ccc(-c2cnc(N)cn2)c1F [Example 834, 5-(3-Fluoro-2-methoxybiphenyl-4-yl)pyrazin-2-amine] | 1090 nM | 48.9 nM | – |
| Nc1cnc(-c2ccc(-c3ccccc3-c3cnccn3)cc2F)cn1 [Example 838, 5-(3-Fluoro-2′-(pyrazin-2-yl)-[1,1′-biphenyl]-4-yl)pyrazin-2-amine] | 350 nM | 28.6 nM | – |
| Nc1ncc(-c2ccc(-c3ccccc3-c3cnccn3)cc2F)cn1 [Example 839, 5-(3-Fluoro-2′-pyrazin-2-ylbiphenyl-4-yl)pyrimidin-2-amine] | 2790 nM | 830 nM | – |
| Nc1cnc(-c2ccc(-c3ccccc3-c3cncc(N)n3)cc2F)cn1 [Example 842, 5-[2′-(6-Aminopyrazin-2-yl)-3-fluorobiphenyl-4-yl]pyrazin-2-amine] | 61 nM | 5.3 nM | – |
| Cn1cc(-c2ccccc2-c2ccc(-c3cnc(N)cn3)c(F)c2)cn1 [Example 847, 5-[3-Fluoro-2′-(1-methyl-1H-pyrazol-4-yl)biphenyl-4-yl]pyrazin-2-amine] | 99.1 nM | 8.1 nM | – |
| N#Cc1ncc(-c2ccccc2-c2ccc(-c3cnc(N)cn3)c(F)c2)cn1 [Example 849, 5-[4′-(5-Aminopyrazin-2-yl)-3′-fluorobiphenyl-2-yl]pyrimidine-2-carbonitrile] | > 1000 nM | 35.6 nM | – |
| Nc1cnc(-c2ccc(-c3ccccc3-c3cnc(N4CCOCC4)nc3)cc2F)cn1 [Example 850, 5-[3-Fluoro-2′-(2-morpholin-4-ylpyrimidin-5-yl)biphenyl-4-yl]pyrazin-2-amine] | 195 nM | 37.7 nM | – |
| Nc1cnc(-c2ccc(-c3ccc(C(F)(F)F)cc3C3=CCNCC3)cc2F)cn1 [Example 852, 5-[3-Fluoro-2′-(1,2,3,6-tetrahydropyridin-4-yl)-4′-(trifluoromethyl)biphenyl-4-yl]pyrazin-2-amine] | 1350 nM | 118 nM | – |
| Nc1cnc(-c2ccc(-c3ccccc3N3CCCS3(=O)=O)cc2F)cn1 [Example 856, 5-[2′-(1,1-Dioxidoisothiazolidin-2-yl)-3-fluorobiphenyl-4-yl]pyrazin-2-amine] | 83.9 nM | 60.5 nM | – |
| Nc1ncc(-c2ccc(-c3ccccc3N3CCCS3(=O)=O)cc2F)cn1 [Example 858, 5-[2′-(1,1-Dioxidoisothiazolidin-2-yl)-3-fluorobiphenyl-4-yl]pyrimidin-2-amine] | 370 nM | 210 nM | – |

From patent US9079866B2, “Flap modulators” (JANSSEN PHARMACEUTICA NV, priority 2013, dated 2015)
